Data on 18 molecules can be found in patent US10030047B2 (Hoffmann-La Roche Inc., priority 2015, dated 2018).

The assay deals with A. baumannii strain ATCC17978. The assay is described as follows: 50% growth inhibitory concentration (IC50) determination, Iso-Sensitest broth. Type of assay: cell-based. Particulars: Acinetobacter baumannii; A. baumannii ATCC17978; Iso-Sensitest medium; OD 600 nm over 16 h; read-out: IC50 ATCC17978. On the procedure: The in vitro antimicrobial activity of the compounds was alternatively determined according to the following procedure:
The assay used a 10-points Iso-Sensitest broth medium to measure quantitatively the in vitro activity of the compounds against A. baumannii ATCC 17978.
Stock compounds in DMSO were serially twofold diluted (e.g. range from 50 to 0.097 μM final concentration) in 384 wells microtiter plates and inoculated with 49 μl the bacterial suspension in Iso-Sensitest medium to have a final cell concentration of ˜5×10^(5) CFU/ml in a final volume/well of 50 ul/well. Microtiter plates were incubated at 35±2° C.
Bacterial cell growth was determined with the measurement of optical density at λ=600 nm each 20 minutes over a time course of 16 h.
Growth inhibition was calculated during the logarithmic growth of the bacterial cells with determination of the concentration inhibiting 50% (IC50) and 90% (IC90) of the growth.
Tables 3, 4 and 5 provide the 50% growth inhibitory concentrations (IC50) in micromoles per liter of the compounds of present invention obtained against the A. baumannii strain ATCC17978.
In the case of `CN1C(=O)[C@H](CCCCN)NC(=O)[C@H](CCCN)NCc2cccnc2Sc2cnc(Cl)cc2CNC(=O)[C@@H]1Cc1c[nH]c2ccccc12` [Example 159, (7S,10S,13S)— 13-((1H-Indol-3-yl)methyl)-10-(4-aminobutyl)-7-(3-aminopropyl)-18-chloro-12-methyl-6,7,9,10,12,13,15,16-octahydrodipyrido[2,3-b:4′,3′-p][1,5,8,11,14]thiatetraazacycloheptadecine-8,11,14(5H)-trione], the IC50 (in general, the concentration that gives 50% inhibition) was less than 390 nM.

On to `CNCCCC[C@@H]1NC(=O)[C@H](CCCN)NCc2cccnc2Sc2c(Cl)cc(Cl)cc2CNC(=O)[C@H](Cc2c[nH]c3ccccc23)N(C)C1=O` [Example 251, (11S,14S,17S)-11-(3-Amino-propyl)-23,25-dichloro-17-(1H-indol-3-ylmethyl)-16-methyl-14-(4-methylamino-butyl)-2-thia-4,10,13,16,19-pentaaza-tricyclo[19.4.0.0*3,8*]pentacosa-1(25),3(8),4,6,21,23-hexaene-12,15,18-trione], for which the IC50 is less than 100 nM. In the case of `CN1C(=O)[C@H](CCCCN)NC(=O)[C@H](CCCN)NCc2ccccc2Sc2c(-c3cccnc3)ncc(Cl)c2CNC(=O)[C@@H]1Cc1c[nH]c2ccccc12` [Example 194], the IC50 was 3300 nM. Take `CN1C(=O)[C@H](CCCCN)NC(=O)[C@H](CCCN)NCc2cccnc2Sc2c(Cl)ccc(-c3ccc(C(=O)NCCN4CCOCC4)cc3)c2CNC(=O)[C@@H]1Cc1c[nH]c2ccccc12` [Example 249, 4-[(11S,14S,17S)-14-(4-Amino-butyl)-11-(3-amino-propyl)-25-chloro-17-(1H-indol-3-ylmethyl)-16-methyl-12,15,18-trioxo-2-thia-4,10,13,16,19-pentaaza-tricyclo[19.4.0.0*3,8*]pentacosa-1(25),3(8),4,6,21,23-hexaen-22-yl]-N-(2-morpholin-4-yl-ethyl)-benzamide]: the IC50 is less than 100 nM. As for `CN1C(=O)[C@H](CCCCN)NC(=O)[C@H](CCCN)NCc2cc(Br)cnc2Sc2ccccc2CNC(=O)[C@@H]1Cc1c[nH]c2ccccc12` [Example 236, (7S,10S,13S)-13-((1H-Indol-3-yl)methyl)-10-(4-aminobutyl)-7-(3-aminopropyl)-3-bromo-12-methyl-6,7,9,10,12,13,15,16-octahydrobenzo[b]pyrido[3,2-p][1,5,8,11,14]thiatetraazacycloheptadecine-8,11,14(5H)-trione], the figure is 3200 nM.

For the molecule `CN1Cc2ccccc2Sc2ccccc2CNC(=O)[C@H](Cc2c[nH]c3ccccc23)NC(=O)[C@H](CCCN)NC(=O)[C@@H]1Cc1ccc(-c2ccccc2)cc1` [Example 117, (12S,15S,18S)-15-(3-Amino-propyl)-18-biphenyl-4-ylmethyl-12-(1H-indol-3-ylmethyl)-19-methyl-2-thia-10,13,16,19-tetraaza-tricyclo[19.4.0.0*3,8*]pentacosa-1(25),3,5,7,21,23-hexaene-11,14,17-trione], the IC50 is 8100 nM.

For the molecule `CN1C(=O)[C@H](CCCCN)NC(=O)[C@H](CCCN)NCc2cccnc2Sc2c(Cl)ccc(-c3ccc(C4CCNCC4)cc3)c2CNC(=O)[C@@H]1Cc1c[nH]c2ccccc12` [Example 250, (11S,14S,17S)-14-(4-Amino-butyl)-1-(3-amino-propyl)-25-chloro-17-(1H-indol-3-ylmethyl)-16-methyl-22-(4-piperidin-4-yl-phenyl)-2-thia-4,10,13,16,19-pentaaza-tricyclo[19.4.0.0*3,8*]pentacosa-1(25),3(8),4,6,21,23-hexaene-12,15,18-trione], the IC50 is less than 100 nM. Turning to `CN1C(=O)[C@H](CCCCN)NC(=O)[C@H](CCCN)NCc2cccnc2Sc2c(Cl)ccc(-c3ccc(OCC(O)CO)cc3)c2CNC(=O)[C@@H]1Cc1c[nH]c2ccccc12` (stereo partly drawn) [Example 240, (11S,14S,17S)-14-(4-Amino-butyl)-11-(3-amino-propyl)-25-chloro-22-[4-(2,3-dihydroxy-propoxy)-phenyl]-17-(1H-indol-3-ylmethyl)-16-methyl-2-thia-4,10,13,16,19-pentaaza-tricyclo[19.4.0.0*3,8*]pentacosa-1(25),3(8),4,6,21,23-hexaene-12,15,18-trione], the IC50 is less than 100 nM.

Turning to `CN1C(=O)[C@H](CCCCN)NC(=O)[C@H](CCCN)NCc2ccccc2Sc2c(Cl)cc(-c3ccccc3)cc2CNC(=O)[C@@H]1Cc1c[nH]c2ccccc12` [Example 140, (12S,15S,18S)-15-(4-Amino-butyl)-18-(3-amino-propyl)-4-chloro-12-(1H-indol-3-ylmethyl)-13-methyl-6-phenyl-2-thia-10,13,16,19-tetraaza-tricyclo[19.4.0.0*3,8*]pentacosa-1(25),3,5,7,21,23-hexaene-11,14,17-trione], the IC50 is 600 nM. Turning to `CN1C(=O)[C@H](CCCCN)NC(=O)[C@H](CCCN)NCc2cccnc2Sc2c(Cl)ccc(-c3ccc(C(=O)NCCO)cc3)c2CNC(=O)[C@@H]1Cc1c[nH]c2ccccc12` [Example 247, 4-[(11S,14S,17S)-14-(4-Amino-butyl)-11-(3-amino-propyl)-25-chloro-17-(1H-indol-3-ylmethyl)-16-methyl-12,15,18-trioxo-2-thia-4,10,13,16,19-pentaaza-tricyclo[19.4.0.0*3,8*]pentacosa-1(25),3(8),4,6,21,23-hexaen-22-yl]-N-(2-hydroxy-ethyl)-benzamide], the IC50 was less than 100 nM. As for `CN1C(=O)[C@H](CCCCN)NC(=O)[C@H](CCCN)NCc2cc(-c3ccccc3)ccc2Sc2c(Cl)cccc2CNC(=O)[C@@H]1Cc1c[nH]c2ccccc12` [Example 207, (12S,15S,18S)-15-(4-Amino-butyl)-18-(3-amino-propyl)-4-chloro-12-(1H-indol-3-ylmethyl)-13-methyl-23-phenyl-2-thia-10,13,16,19-tetraaza-tricyclo[19.4.0.0*3,8*]pentacosa-1(25),3,5,7,21,23-hexaene-11,14,17-trione], the IC50 came to 9000 nM. As for `COc1cc(-c2ccc3c(n2)CNC(=O)[C@H](Cc2c[nH]c4ccccc24)N(C)C(=O)[C@H](CCCCN)NC(=O)[C@H](CCCN)NCc2cccnc2S3)ccn1` [Example 217, (7S,10S,13S)-13-((1H-Indol-3-yl)methyl)-10-(4-aminobutyl)-7-(3-aminopropyl)-18-(2-methoxypyridin-4-yl)-12-methyl-6,7,9,10,12,13,15,16-octahydrodipyrido[2,3-b:2′,3′-p][1,5,8,11,14]thiatetraazacycloheptadecine-8,11,14(5H)-trione], the IC50 worked out at 1000 nM. Turning to `CCCC[C@@H]1NC(=O)[C@H](CCCN)NCc2cccnc2Sc2c(Cl)cc(Cl)cc2CNC(=O)[C@H](Cc2c[nH]c3ccccc23)N(C)C1=O` [Example 253, (11S,14S,17S)-11-(3-Amino-propyl)-14-butyl-23,25-dichloro-17-(1H-indol-3-ylmethyl)-16-methyl-2-thia-4,10,13,16,19-pentaaza-tricyclo[19.4.0.0*3,8*]pentacosa-1(25),3(8),4,6,21,23-hexaene-12,15,18-trione], the IC50 came to 4200 nM. `CN1C(=O)[C@H](CCCCN)NC(=O)[C@H](CCCN)NCc2ccccc2Sc2c(Cl)cc(-c3ccccc3Cl)cc2CNC(=O)[C@@H]1Cc1c[nH]c2ccccc12` [Example 141, (12S,15S,18S)-15-(4-Amino-butyl)-18-(3-amino-propyl)-4-chloro-6-(2-chloro-phenyl)-12-(1H-indol-3-ylmethyl)-13-methyl-2-thia-10,13,16,19-tetraaza-tricyclo[19.4.0.0*3,8*]pentacosa-1(25),3,5,7,21,23-hexaene-11,14,17-trione]: the IC50 turned out to be 1300 nM. As to `CN1C(=O)[C@H](CCCCN)NC(=O)[C@H](CCCN)NCc2cccnc2Sc2c(Cl)ccc(-c3ccc(CN)cc3)c2CNC(=O)[C@@H]1Cc1c[nH]c2ccccc12` [Example 243, (11S,14S,17S)-14-(4-Amino-butyl)-22-(4-aminomethyl-phenyl)-11-(3-amino-propyl)-25-chloro-17-(1H-indol-3-ylmethyl)-16-methyl-2-thia-4,10,13,16,19-pentaaza-tricyclo[19.4.0.0*3,8*]pentacosa-1(25),3(8),4,6,21,23-hexaene-12,15,18-trione], the IC50 was less than 100 nM. Turning to `NCCCC[C@@H]1NC(=O)[C@H](CCCN)NCc2cccnc2Sc2c(ccc(-c3ccccc3)c2Cl)CNC(=O)[C@H](Cc2c[nH]c3ccccc23)NC1=O` [Example 125, (11S,14S,17S)-14-(4-Amino-butyl)-11-(3-amino-propyl)-25-chloro-17-(1H-indol-3-ylmethyl)-24-phenyl-2-thia-4,10,13,16,19-pentaaza-tricyclo[19.4.0.0*3,8*]pentacosa-1(25),3,5,7,21,23-hexaene-12,15,18-trione], the IC50 worked out at 23300 nM.

In the case of `CN1C(=O)[C@H](CCCCN)NC(=O)[C@H](CCCN)NCc2ccccc2Sc2c(-c3ccnc(C(F)(F)F)c3)ncc(Cl)c2CNC(=O)[C@@H]1Cc1c[nH]c2ccccc12` [Example 198], the IC50 was 300 nM.

Turning to `CN1C(=O)[C@H](CCCCN)NC(=O)[C@H](CCCN)NCc2ccccc2Sc2c(Cl)cc(-c3cccnc3)cc2CNC(=O)[C@@H]1Cc1c[nH]c2ccccc12` [Example 142, (12S,15S,18S)-15-(4-Amino-butyl)-18-(3-amino-propyl)-4-chloro-12-(1H-indol-3-ylmethyl)-13-methyl-6-pyridin-3-yl-2-thia-10,13,16,19-tetraaza-tricyclo[19.4.0.0*3,8*]pentacosa-1(25),3,5,7,21,23-hexaene-11,14,17-trione], the IC50 was less than 400 nM.
